# Experimental data published in patent US5308766A (priority 1990, dated 1994).
# What was measured:
# [1] = molecular target: PLA2 obtained from cobra venom (N. naja naja) (Naja naja, UniProt P15445); assay type: biochemical
# [2] = molecular target: phospholipase A2 obtained from cobra venom (Naja naja, UniProt P15445); assay type: biochemical
# [3] = Stability of p-nitrophenyl esters in solvents; assay type: physicochemical; details: polar solvents such as alcohols
# Method: Pure samples of 1a-1e were obtained after HPLC chromatography using anhydrous MeOH to elute the lipid from a Brownlee C18 column. […] Storage of these compounds at -10° C. in CHCl3 or CH2 Cl2 greatly enhances the stability. Therefore, HPLC-purified SIBLINKS were immediately transferred to CHCl3 for storage. In an aqueous environment, the stability is enhanced when incorporated into vesicles or Triton micelles. The following are representative spectral data for lipids 1b, 1c, 1d and 1e containing a decanoyl (C10) chain moiety at the sn-1 position.
# [4] = molecular target: phospholipase A2 obtained from cobra venom (Naja naja naja) (Naja naja, UniProt P15445); assay type: biochemical
# Sequence of phospholipase A2 obtained from cobra venom (Naja naja naja) (P15445 whole entry, looked up): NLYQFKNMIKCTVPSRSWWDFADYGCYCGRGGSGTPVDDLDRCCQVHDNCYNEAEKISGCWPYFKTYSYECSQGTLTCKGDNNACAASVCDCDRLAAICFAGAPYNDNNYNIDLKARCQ
# [5] = molecular target: cobra venom phospholipase A2 (PLA2) (Naja naja, UniProt P15445); details: cited from earlier work
# Sequence of cobra venom phospholipase A2 (PLA2) (P15445 whole entry, looked up): as above
# [6] = molecular target: bee venom phospholipase A2 (PLA2) (Apis mellifera, UniProt P00630); details: cited from earlier work
# Sequence of bee venom phospholipase A2 (PLA2) (P00630 34-167 limits assumed): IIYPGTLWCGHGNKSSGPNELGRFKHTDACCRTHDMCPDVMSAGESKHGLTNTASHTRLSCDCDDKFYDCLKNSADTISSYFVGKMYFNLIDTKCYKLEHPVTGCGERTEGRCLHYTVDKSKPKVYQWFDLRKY
# [7] = in vivo; cited from earlier work
# [8] = system: PLA2; details: modification of lysine residues; cited from earlier work
# Sequence of phospholipase A2 obtained from cobra venom (P15445 whole entry, looked up): as the sequence (P15445 whole entry, looked up) above
# Sequence of PLA2 obtained from cobra venom (N. naja naja) (P15445 whole entry, looked up): as above
structure (smiles),measurement,setting,value
CCCCCCCCCC(=O)OC[C@H](COP(=O)([O-])OCC[N+](C)(C)C)OC(=O)CC(C)(C)CC(=O)Oc1ccc([N+](=O)[O-])cc1 [1c],"V, initial velocity for release of p-nitrophenol",[1],0.002 µmol/min/mg
same,efficiency of enzymatic deactivation (suicide inhibition),[2],more efficient suicide inhibitors
CCCCCCCCCC(=O)OC[C@H](COP(=O)([O-])OCC[N+](C)(C)C)OC(=O)CCC(=O)Oc1ccc([N+](=O)[O-])cc1 [1d],"V, initial velocity for release of p-nitrophenol",[1],0.6 µmol/min/mg
same,concentration below which mixed micelles do not inhibit,[2],20 NM
same,effect on P of raising preincubation temperature,[2],did increase P
same,effect on inactivation time course of raising preincubation temperature,[2],little effect
same,efficiency of enzymatic deactivation (suicide inhibition),[2],"less efficient, but is processed faster"
same,ratio of inhibitor/PLA2 needed to observe inhibition,[2],> 40
same,stability of p-nitrophenyl ester,[3],especially prone to hydrolysis
CCCCCCCCCC(=O)OC[C@H](COP(=O)([O-])OCC[N+](C)(C)C)OC(=O)CC(C)(C)C(=O)Oc1ccc([N+](=O)[O-])cc1 [1e],"V, initial velocity for release of p-nitrophenol",[1],0.005 µmol/min/mg
same,efficiency of enzymatic deactivation (suicide inhibition),[2],more efficient suicide inhibitors
CCCCCCCCCC(=O)OC[C@H](COP(=O)([O-])OCC[N+](C)(C)C)OC(=O)CCCC(=O)Oc1ccc([N+](=O)[O-])cc1 [compound 1a],"V, initial velocity for release of p-nitrophenol",[1],155 µmol/min/mg
same,change of hydrolysis rate with Triton/phospholipid surface ratio,[4],diminishes three-fold
same,"concentration of substrate required to reach half saturation, versus DPPC",[4],lower concentration of substrate
same,stability of p-nitrophenyl ester,[3],especially prone to hydrolysis
CCCCCCCCCC(=O)OC[C@H](COP(=O)([O-])OCC[N+](C)(C)C)OC(=O)CCC(C)(C)C(=O)Oc1ccc([N+](=O)[O-])cc1 [compound 1b],"V, initial velocity for release of p-nitrophenol",[1],0.11 µmol/min/mg
same,effect on P of raising preincubation temperature,[2],did increase P
same,effect on inactivation time course of raising preincubation temperature,[2],little effect
same,efficiency of enzymatic deactivation (suicide inhibition),[2],more efficient suicide inhibitors
CC1=C(CC/C(C)=C/CCC2=CC[C@H](C3=CC(=O)O[C@H]3O)O[C@H]2O)C(C)(C)CCC1 [manoalide],inhibition of cobra venom PLA2,[5],inhibitor of both cobra and bee venom phospholipase A2
same,inhibition of bee venom PLA2,[6],inhibitor of both cobra and bee venom phospholipase A2
same,anti-inflammatory activity,[7],anti-inflammatory activity in vivo
same,mode of PLA2 inactivation,[8],time-dependent irreversible inactivation
